# Legend:
# adult mongrel dogs [1] = test: Induced hypotension in ten halothane-anesthetized dogs, average arterial blood pressure kept at 60 mmHg for 60 min (Example 6); format: in vivo, dog; settings: MAP kept at 60 mmHg, mean ± S.D.
# Description: Adult mongrel dog, mean body weight 12.7 ± 3.1 kg, was anesthesized with pentobarbital 25 mg/kg, intratarcheally cannulated and maintained anesthetic condition by 0.87% halothane-oxygen (1 MAC, minimum anesthetic concentration). Respiration was controlled, by using respirator (Harvard Corp., Model 613E ) at Paco₂ 35±5 mmHg.
# Catheters were introduced to right femoral vein and artery for monitering arterial blood pressure, arterial blood gas analysis and infusion, and left cardiac catheter was introduced to left femoral […] to monitor left ventricular pressure. The changes in left ventricular pressure were differentiated continuously using a pressure processor (Nihon Koden Co., EQ-601G) to measure a maximum left ventricular systolic ratio (LV dp/dt max). The active ingredient of the present invention was administered to left femoral vein. Pulmonary arterial catheter (7F, Swan-Ganz® catheter) was introduced through right external jugular vein to monitor pulmonary artery pressure (PAP), paulmonary arterial wedge pressure (pulmonary capillary wedge pressure, PCWP) and cardiac output (CO). Pressure was monitored by using disporsable pressure monitoring kit (Gould Corp.), and electrocardiogram, arteriala pressure, left ventricle pressure (LVP) and maximum left ventricular systolic ratio (LV dp/dt max) were monitored by polygraph (Nihon Koden Co.) . Cardiac output (CO) was measured by thermal dilution method using cardiac output monitor (Nihon Koden Co Model MTC6210). Blood gas analysis was made by using automatic blood gas analyser (Radiometer Corp. ABL3). Mean artery pressure (MAP), cardiac index(CI) stroke volume index (SI), systemic vascular resistance (SVR), pulmonary vascular resistance (PVR), left ventricle stroke work index (LVSWI) and coronary perfusion pressure (CPP) were calculated by standard calculation equations, respectively.
# To maintain low blood pressure, the active ingredient was intraveneously administered for 60 minutes with maintaining maximum dose at 40 µg/kg and adjusting to maintain mean arteraial pressure at 50 mmHg. Physiological saline was used for maintenance infusion and administered in combination with the active ingredient at 7 ml/kg/hr. At blood sampling two fold volume of hydroxyethylstarch (6-HES) was supplementary administered. Body temperature was maintained at 37 ± 1°C by covering with blanket.
# Example 5 was repeated by substantially almost same manner using ten adult mongrel dogs, mean body weight 14.7±2.1 kg, applying same anesthetic condition with maintaining artificially hypotensive with average arterial blood pressure at 60 mmHg for 60 min., and administering the active ingredient desalanyl-deamino-c-CGRP.
# A value at time more than 60 minutes passed after completing the start of the experiment and stabilizing a depth of anesthesia and blood flow, was set as control (S₁). Monitorings were performed at 30 min. and 60 min. under reduced blood pressure in induced hypotension, and at 10 min. and 30 min. after terminating the reduced blood pressure in induced hypotension (after stopping administration), for totally five points of time.
# Results are shown by mean ± S.D.
# Amount of the active ingredient for maintaining average arterial blood pressure at 60 mmHg for 60 minutes was 5 µg-115 µg/kg.
# adult mongrel dogs [2] = test: Phenylephrine-induced hypertension in four anesthetized dogs (Example 8); format: in vivo, dog; settings: 10 µg/kg/hr on top of phenylephrine 10 µg/kg/min
# Description: Example 6 was repeated by substantially almost same manner using four adult mongrel dogs, mean body weight 12.3±3.0 kg, applying same anesthetic condition. After setting up the experiment at more than 60 minutes passing and confirming to stabilize the depth of anesthesia and blood flow, phenylephrine (hypertensor) 10 µg/kg/min was administered.
# Further after 10 minutes passed, the active ingredient, desalanyl-deamino-c-CGRP 10 µg/kg/hr was administered and at 10 min. and 20 min. after administration of the active ingredient, heart rate (HR) and mean a artery pressure (MAP) were measured.
# [3] = after administ. of CGRP 10 min(20min)
# [4] = after administ. of CGRP 20 min(30min)
substance,measurement,setting,value
desalanyl-deamino-c-CGRP,CPP: Coronary perfusion pressure,adult mongrel dogs [1]; reduced blood pressure 30 min.,38.3±4.5 mmHg
same,CVP: Central venous pressure,adult mongrel dogs [1]; reduced blood pressure 30 min.,2.5±1.1 mmHg
same,DAP: Diastolic artery pressure,adult mongrel dogs [1]; reduced blood pressure 30 min.,47.3±2.8 mmHg
same,DPAP: Diastolic pulmonary artery pressure,adult mongrel dogs [1]; reduced blood pressure 30 min.,9.9±4.0 mmHg
same,EtCO₂: Expiration terminal CO₂ pressure,adult mongrel dogs [1]; reduced blood pressure 30 min.,38.5±5.6 mmHg
same,HR: Heart rate,adult mongrel dogs [1]; reduced blood pressure 30 min.,149.3±31.7 beat/min
same,LV dp/dt max: maximum left ventricular systolic ratio,adult mongrel dogs [1]; reduced blood pressure 30 min.,3070.0±771.8 mmHg/sec
same,LVEP: Left ventricle end pressure,adult mongrel dogs [1]; reduced blood pressure 30 min.,0.0±0.0 mmHg
same,LVP: Left ventricle pressure,adult mongrel dogs [1]; reduced blood pressure 30 min.,102.7±14.1 mmHg
same,LVSWI: Left ventricle stroke work index,adult mongrel dogs [1]; reduced blood pressure 30 min.,16.906±5.750 g.m/beat/m²
same,MAP: Mean artery pressure,adult mongrel dogs [1]; reduced blood pressure 30 min.,60.4±0.7 mmHg
same,MPAP: Mean pulmonary artery pressure,adult mongrel dogs [1]; reduced blood pressure 30 min.,15.6±5.3 mmHg
same,PCWP: Pulmonary capillary wedge pressure,adult mongrel dogs [1]; reduced blood pressure 30 min.,9.0±4.0 mmHg
same,PVR: Pulmonary vascular resistance,adult mongrel dogs [1]; reduced blood pressure 30 min.,231.10±80.62 dynes · sec/cm⁵
same,RPP: Rate pressure products,adult mongrel dogs [1]; reduced blood pressure 30 min.,11357.0±2260.5 mmHg.beat/min
same,RVSWI: Right ventricle stroke work index,adult mongrel dogs [1]; reduced blood pressure 30 min.,3.979±1.239 g.m/beat/m²
same,SAP: Systolic artery pressure,adult mongrel dogs [1]; reduced blood pressure 30 min.,76.5±4.8 mmHg
same,SI: Stroke index,adult mongrel dogs [1]; reduced blood pressure 30 min.,23.810±6.952 ml/HR/m²
same,SPAP: Systolic pulmonary artery pressure,adult mongrel dogs [1]; reduced blood pressure 30 min.,23.0±6.2 mmHg
same,SV: Stroke volumes,adult mongrel dogs [1]; reduced blood pressure 30 min.,16.5 ± 5.78 mL/beat
same,SVR: Systemic vascular resistance,adult mongrel dogs [1]; reduced blood pressure 30 min.,2054.0±455.6 dynes · sec/cm⁵
same,CI: Cardiac index,adult mongrel dogs [1]; reduced blood pressure 60 min.,4.006 ±0.771 ** 1/min/m²
same,CO: Cardiac output,adult mongrel dogs [1]; reduced blood pressure 60 min.,2.739 ±0.518 * 1/min
same,CPP: Coronary perfusion pressure,adult mongrel dogs [1]; reduced blood pressure 60 min.,38.3±4.9 mmHg
same,CVP: Central venous pressure,adult mongrel dogs [1]; reduced blood pressure 60 min.,2.2±1.2 mmHg
same,DAP: Diastolic artery pressure,adult mongrel dogs [1]; reduced blood pressure 60 min.,47.7±2.6 mmHg
same,DPAP: Diastolic pulmonary artery pressure,adult mongrel dogs [1]; reduced blood pressure 60 min.,11.3±4.9 mmHg
same,EtCO₂: Expiration terminal CO₂ pressure,adult mongrel dogs [1]; reduced blood pressure 60 min.,39.8±6.9 mmHg
same,HR: Heart rate,adult mongrel dogs [1]; reduced blood pressure 60 min.,154.3 ± 33.8 beat/min
same,LV dp/dt max: maximum left ventricular systolic ratio,adult mongrel dogs [1]; reduced blood pressure 60 min.,3210.0±749.0 mmHg/sec
same,LVEP: Left ventricle end pressure,adult mongrel dogs [1]; reduced blood pressure 60 min.,0.0±0.0 mmHg
same,LVP: Left ventricle pressure,adult mongrel dogs [1]; reduced blood pressure 60 min.,104.7±16.3 mmHg
same,LVSWI: Left ventricle stroke work index,adult mongrel dogs [1]; reduced blood pressure 60 min.,18.949±6.280 g.m/beat/m²
same,MAP: Mean artery pressure,adult mongrel dogs [1]; reduced blood pressure 60 min.,60.1±0.9 mmHg
same,MPAP: Mean pulmonary artery pressure,adult mongrel dogs [1]; reduced blood pressure 60 min.,17.7±5.9 mmHg
same,PCWP: Pulmonary capillary wedge pressure,adult mongrel dogs [1]; reduced blood pressure 60 min.,9.4±4.7 mmHg
same,PVR: Pulmonary vascular resistance,adult mongrel dogs [1]; reduced blood pressure 60 min.,251.20±97.14 dynes · sec/cm⁵
same,RPP: Rate pressure products,adult mongrel dogs [1]; reduced blood pressure 60 min.,11462.0±2765.1 mmHg.beat/min
same,RVSWI: Right ventricle stroke work index,adult mongrel dogs [1]; reduced blood pressure 60 min.,5.380±1.747 g.m/beat/m²
same,SAP: Systolic artery pressure,adult mongrel dogs [1]; reduced blood pressure 60 min.,74.4±4.9 mmHg
same,SI: Stroke index,adult mongrel dogs [1]; reduced blood pressure 60 min.,27.030 ±7.664 ml/HR/m²
same,SPAP: Systolic pulmonary artery pressure,adult mongrel dogs [1]; reduced blood pressure 60 min.,25.5±7.3 mmHg
same,SV: Stroke volumes,adult mongrel dogs [1]; reduced blood pressure 60 min.,18.5 ± 5.94 mL/beat
same,SVR: Systemic vascular resistance,adult mongrel dogs [1]; reduced blood pressure 60 min.,1748.0±409.1 dynes · sec/cm⁵
same,HR: Heart rate,adult mongrel dogs [2]; [3],103 beats/min
same,MAP: Mean artery pressure,adult mongrel dogs [2]; [3],104.8 ±2.7 mmHg
same,HR: Heart rate,adult mongrel dogs [2]; [4],104±2.8 beat/min
same,MAP: Mean artery pressure,adult mongrel dogs [2]; [4],184±4.9 mmHg

# Source: patent EP0672419A1, “BLOOD PRESSURE REGULATOR” (Asahi Kasei Kogyo Kabushiki Kaisha, priority 1991, dated 1995)
